{"source": "patent US5532267A", "about": "“Amidinonaphthyl furancarboxylate derivatives and acid addition salts therof” (Torii & Co., Ltd., priority 1992, dated 1996)", "key": {"C1r": {"target": "T1, C1r (Homo sapiens, UniProt P00736)", "T1 sequence (P00736 18-705)": "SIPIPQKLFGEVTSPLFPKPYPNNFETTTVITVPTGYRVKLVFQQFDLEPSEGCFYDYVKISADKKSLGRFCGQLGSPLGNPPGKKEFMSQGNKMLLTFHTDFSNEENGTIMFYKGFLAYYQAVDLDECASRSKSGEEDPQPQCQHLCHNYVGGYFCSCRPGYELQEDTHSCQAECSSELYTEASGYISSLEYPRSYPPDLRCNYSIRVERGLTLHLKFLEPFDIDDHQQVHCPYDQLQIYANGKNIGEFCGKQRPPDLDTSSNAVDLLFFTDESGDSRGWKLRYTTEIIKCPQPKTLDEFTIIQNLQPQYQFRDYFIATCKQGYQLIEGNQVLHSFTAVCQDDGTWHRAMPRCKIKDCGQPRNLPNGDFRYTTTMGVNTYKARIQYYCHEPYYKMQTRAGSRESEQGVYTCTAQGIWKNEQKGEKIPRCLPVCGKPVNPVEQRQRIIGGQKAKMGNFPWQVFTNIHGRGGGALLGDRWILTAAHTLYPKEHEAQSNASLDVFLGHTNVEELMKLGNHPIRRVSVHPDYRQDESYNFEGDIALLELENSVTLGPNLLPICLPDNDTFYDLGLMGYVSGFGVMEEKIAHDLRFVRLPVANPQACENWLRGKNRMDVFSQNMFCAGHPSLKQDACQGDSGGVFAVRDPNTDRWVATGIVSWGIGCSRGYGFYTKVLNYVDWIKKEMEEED", "assay": "anti-complement (anti-C1 esterase) activity, C1r hydrolysis of AAME (acetyl-arginine methyl ester)", "assay_type": "biochemical", "conditions": "hydrolysis of AAME; read-out: Clr: molar concentration inhibiting 50% of C1r activity (IC50)"}, "plasmin": {"target": "plasmin (Homo sapiens, UniProt P00747)", "sequence (P00747 581-810 limits assumed, species assumed)": "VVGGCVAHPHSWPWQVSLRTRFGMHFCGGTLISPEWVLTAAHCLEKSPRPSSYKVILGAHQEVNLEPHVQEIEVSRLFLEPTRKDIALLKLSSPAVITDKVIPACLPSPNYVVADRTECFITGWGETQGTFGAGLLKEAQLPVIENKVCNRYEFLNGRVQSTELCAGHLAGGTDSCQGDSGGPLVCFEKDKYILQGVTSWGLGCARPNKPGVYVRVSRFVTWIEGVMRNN", "sequence (P00747 97-580 partner limits assumed, species assumed)": "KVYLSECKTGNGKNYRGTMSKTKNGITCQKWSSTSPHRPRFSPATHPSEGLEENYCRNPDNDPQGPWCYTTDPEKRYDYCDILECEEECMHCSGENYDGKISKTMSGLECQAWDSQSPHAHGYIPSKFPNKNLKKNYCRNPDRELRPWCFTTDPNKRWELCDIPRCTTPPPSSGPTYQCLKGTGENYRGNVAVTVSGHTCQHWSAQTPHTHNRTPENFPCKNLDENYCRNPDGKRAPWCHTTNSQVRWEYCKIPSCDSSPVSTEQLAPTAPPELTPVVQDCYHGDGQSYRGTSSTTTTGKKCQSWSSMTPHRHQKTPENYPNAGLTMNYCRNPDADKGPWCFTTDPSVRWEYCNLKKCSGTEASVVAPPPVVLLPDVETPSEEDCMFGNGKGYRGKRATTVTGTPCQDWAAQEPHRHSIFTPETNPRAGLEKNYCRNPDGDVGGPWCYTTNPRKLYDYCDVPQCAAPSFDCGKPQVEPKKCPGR", "assay": "anti-plasmin activity, hydrolysis of TAME (tosylarginine methyl ester)", "assay_type": "biochemical", "conditions": "hydrolysis of TAME; read-out: Pla: molar concentration inhibiting 50% of enzyme activity (IC50)", "method": "(§1) The values in Table 1 represent molar concentrations (IC50) of test compounds which inhibit 50% of the activity of each enzyme to hydrolyze TAME (tosylarginine methyl ester). The anti-trypsin, anti-plasmin, anti-kallikrein and anti-thrombin activities were determined according to the method of Muramatsu et al. (J. Biochem. (1965), volume 58, page 214)."}, "trypsin": {"target": "T2, trypsin (Bos taurus, UniProt P00760)", "T2 sequence (P00760 24-246)": "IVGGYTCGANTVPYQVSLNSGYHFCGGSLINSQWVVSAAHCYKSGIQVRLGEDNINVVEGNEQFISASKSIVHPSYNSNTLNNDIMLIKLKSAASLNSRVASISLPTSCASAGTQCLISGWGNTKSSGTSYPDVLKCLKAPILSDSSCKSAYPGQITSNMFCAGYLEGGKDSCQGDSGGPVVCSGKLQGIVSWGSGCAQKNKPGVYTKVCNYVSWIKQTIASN", "assay": "anti-trypsin activity, hydrolysis of TAME (tosylarginine methyl ester)", "assay_type": "biochemical", "conditions": "hydrolysis of TAME; read-out: Try: molar concentration inhibiting 50% of enzyme activity (IC50)"}, "C1s": {"target": "T3, C1s (Homo sapiens, UniProt P09871)", "T3 sequence (P09871 16-688)": "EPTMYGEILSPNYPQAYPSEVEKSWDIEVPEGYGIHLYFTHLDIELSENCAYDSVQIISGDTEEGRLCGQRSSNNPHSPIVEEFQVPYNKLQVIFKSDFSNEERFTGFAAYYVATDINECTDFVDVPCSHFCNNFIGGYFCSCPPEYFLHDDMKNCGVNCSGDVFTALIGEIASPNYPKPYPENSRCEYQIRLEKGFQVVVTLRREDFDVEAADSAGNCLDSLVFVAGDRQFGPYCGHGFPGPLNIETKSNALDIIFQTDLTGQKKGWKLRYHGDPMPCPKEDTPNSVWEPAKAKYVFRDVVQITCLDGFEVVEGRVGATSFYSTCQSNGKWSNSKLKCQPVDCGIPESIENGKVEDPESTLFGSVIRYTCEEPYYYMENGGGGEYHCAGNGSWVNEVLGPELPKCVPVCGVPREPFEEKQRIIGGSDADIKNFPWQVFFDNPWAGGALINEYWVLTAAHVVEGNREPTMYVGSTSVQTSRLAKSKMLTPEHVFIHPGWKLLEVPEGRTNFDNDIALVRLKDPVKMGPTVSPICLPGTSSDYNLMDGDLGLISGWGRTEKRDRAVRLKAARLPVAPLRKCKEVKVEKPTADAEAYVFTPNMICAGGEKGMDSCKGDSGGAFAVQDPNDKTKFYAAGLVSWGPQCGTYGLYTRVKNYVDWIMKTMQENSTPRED", "assay": "anti-complement (anti-C1 esterase) activity, C1s hydrolysis of ATEE (acetyltyrosine ethyl ester)", "assay_type": "biochemical", "conditions": "hydrolysis of ATEE; read-out: Cls: molar concentration inhibiting 50% of C1s activity (IC50)", "description": "The anti-C1 esterase (C1r, C1s) activity was determined according to the method of Okamura et al. (Biochem. Biophys. Acta (1973), volume 295, pages 252-257). […] The values for C1s represent molar concentrations (IC50) of test compounds which inhibit 50% of the activity of C1s to hydrolyze ATEE (acetyltyrosine ethyl ester)."}, "adjuvant arthritis": {"system": "adjuvant arthritis", "assay": "Effectiveness in treating adjuvant arthritis (Mycobacterium butyricum)", "assay_type": "in vivo, rat", "conditions": "60 mg/kg, oral, day -1 to day 13", "method": "Adjuvant arthritis is known as a representative model of autoimmune diseases and is a effective means of testing agents to treat human rheumatoid arthritis (Encyclopedia of Immunology, edited by I. M. Roitt, Academic Press, 1992; Otterness, I. G., et al., J. of Rheumatology (1991), volume 18, pages 505-511),\nThe method of experiment was as follows. A 0.6% Mycobacterium butyricum liquid paraffin suspension, 0.1 ml/animal, was administered to a rat at a subcutaneous site of left hind-limb sole to induce adjuvant arthritis. The present compound was orally administered (in the form of a suspension in water) consecutively from 1 day before the induction to 13 days after the induction. The efficacy of the present compound on adjuvant arthritis was evaluated by examining the swelling accompanied by red spots and subcutaneous knots at the fore-limb, hind-limb, tail, ear and periphery of eye with the lapse of days (on the 8th, 10th, 12th, 14th, 16th and 18th days after adjuvant administration), expressing the results in terms of scores according to the method of F. D. Wood et al. (Int. Arch. Allergy (1969), volume 35, pages 456-467), and calculating the percentage inhibition relative to the control group. Thus, the higher value of percentage inhibition indicates the higher effectiveness."}, "Masugi's nephritis": {"system": "Masugi's nephritis", "assay": "Effectiveness in treating Masugi's nephritis (experimental glomerulonephritis), protein in urine", "assay_type": "in vivo, rat", "conditions": "10 mg/kg, oral; mean ± standard deviation, 7 animals; control group 40.8 ± 15.1", "method": "[…] […] As the index to effectiveness, the protein concentration in urine was determined. That is, when inflammation develops in the kidney, it causes damage to renal tubules, etc., and a resultant increase in protein concentration in urine."}, "kallikrein": {"system": "kallikrein", "assay": "anti-kallikrein activity, hydrolysis of TAME (tosylarginine methyl ester)", "assay_type": "biochemical", "conditions": "hydrolysis of TAME; read-out: Kal: molar concentration inhibiting 50% of enzyme activity (IC50)", "method": "as §1"}, "thrombin": {"target": "thrombin (Homo sapiens, UniProt P00734)", "assay": "anti-thrombin activity, hydrolysis of TAME (tosylarginine methyl ester)", "assay_type": "biochemical", "conditions": "hydrolysis of TAME; read-out: Thr: molar concentration inhibiting 50% of enzyme activity (IC50)", "method": "as §1"}}}
{"smiles": "Cl.N=C(N)c1ccc2cc(OC(=O)c3ccc(CNC(=O)CC(=O)O)o3)ccc2c1", "note": "[Example 17, 6-Amidino-2-naphthyl 5-carboxyacetylaminomethylfuran-2-carboxylate hydrochloride]", "values": [{"measurement": "IC50", "setting": "C1r", "result": 1700, "unit": "nM"}, {"measurement": "IC50", "setting": "plasmin", "result": 43, "unit": "nM"}, {"measurement": "IC50", "setting": "trypsin", "result": 470, "unit": "nM"}, {"measurement": "IC50", "setting": "C1s", "result": 53, "unit": "nM"}, {"measurement": "Percentage inhibition (arthritis score)", "setting": "adjuvant arthritis", "result": 75.1, "unit": "%"}, {"measurement": "Protein concentration in urine", "setting": "Masugi's nephritis", "result": "2.0 ± 2.0", "unit": "mg/mL"}, {"measurement": "IC50", "setting": "kallikrein", "result": 1100, "unit": "nM"}, {"measurement": "IC50", "setting": "thrombin", "result": 1900, "unit": "nM"}]}
